The results in this text go back to PubChem BioAssay (NCI).

Values joined by “and” are separate entries in the source; they are usually repeats but may differ in a detail not shown here. Identical values can stand only once.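 Step 1: Grow cells in 96-well plates. Step 2: Expose to compound for 48 hours at 5 concentrations. Step 3: Interpolate endpoints linearly; if unreached, use highest concentration. At the GI50, growth is halved. TGI: total growth inhibition.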 Where only a bound is given, the exact number is not on record here.

The first assay concerns EKVX NSCLC. Kind of assay: NCI anticancer screen, dose series, 48 h.
On to `COc1ccc(OC)c2c(/C=C/c3ccc(N(C)C)cc3)ccnc12`, for which the TGI was over 10 µM.

`CN[C@@H](C)[C@H](NC)c1ccccc1` came in with a TGI of over 100 µM.

With `O=S1OC2(c3ccccc3-c3ccccc32)c2ccccc21` (configuration not stated), the TGI was over 100 µM.

The test system of another assay is ACHN renal. The assay is described as follows: NCI anticancer screen, dose series, 48 h.
In turn, `COc1cc2ccc3c4cc(OC)c(OC(C)C)cc4cnc3c2cc1OC` displayed a TGI of over 100 µM.

`CN1NC(=Nc2ccccc2)Sc2c1cnn(-c1ccccc1)c2=O` had a TGI of over 100 µM.

For `C1C[OH+]CCNCC[OH+]CC[OH+]CCN1.[Cl-].[Pt+4]`, the GI50 was over 100 µM and the TGI was over 100 µM.

`CC(=O)c1sc(-c2nc(C)c(C(=O)/C=C\c3ccc(/C=C\C(=O)c4sc(-c5nc(C)c(C(C)=O)s5)nc4C)cc3)s2)nc1C`: the TGI was over 100 µM.

On to `COC(=O)/C(C)=C/[N+](=O)[O-]`, for which the TGI turned out to be 35.5 µM.

Molecule `Cc1ccc(C2(O)CC(c3ccc([N+](=O)[O-])o3)=NN2C(=O)COc2ccc(Cl)cc2)cc1` (configuration not stated) had a TGI of 43.1 µM.

In turn, `CC1=NN(C(=O)CC(=O)N(C(=O)c2ccccc2Cl)c2ccc(C)cc2)C(=O)C1N=Nc1ccc([N+](=O)[O-])cc1` (configuration not stated) registered a TGI of over 100 µM.

The molecule `COc1cccc(-n2c3nc(=O)n(C)c(=O)c-3nc3ccccc32)c1` displayed a TGI of 47.3 µM.

The molecule `CC(C)(C=O)CC(C#N)/C(=N\NC(N)=O)C(=O)Nc1ccccc1C(N)=O` (configuration not stated) returned a TGI of over 100 µM.

Take `Cc1cc(C)c(C2[C@H]3C(=O)N(c4ccc(Cc5ccc(N6C(=O)[C@@H]7ON(c8ccccc8)C(c8c(C)cc(C)cc8C)[C@@H]7C6=O)cc5)cc4)C(=O)[C@H]3ON2c2ccccc2)c(C)c1` (some centres not stated): the TGI was over 100 µM.

`COC(=O)OCC1OC(N2C(=O)NC(=O)C(Br)C2N=[N+]=[N-])CC1OC(=O)OC` (configuration not stated) gave a TGI of over 100 µM.

`CC12CCCCC1(C)C2Sc1ccccc1` (configuration not stated) had a TGI of over 100 µM.

`CCCCOC(=O)NC(=O)c1cn(CCCOC(=O)NCCCCCCNC(=O)OCCCn2cc(C(=O)NC(=O)OCCCC)c(=O)[nH]c2=O)c(=O)[nH]c1=O`: the TGI is over 100 µM.

As for `C[C@@]12CCCc3coc(c31)C(=O)c1cc3c(cc12)C(=O)C=CC3=O`, the GI50 is over 1 µM; the TGI is > 1 µM and 25.4 µM.

In turn, `COc1cc(C)c2c(c1C)OC(=O)c1c(C)c(Cl)c(O)c(C=O)c1O2` had a TGI of 35.9 µM.

`C=CCNC(=O)N(CCC)CCCCC(NC(C)=O)C(=O)NCc1ccccc1` (configuration not stated): the TGI is over 100 µM.

`COC(=O)/C(C=O)=C/Sc1ccccc1` came in with a TGI of over 100 µM.

In the case of `C=C1C[C@]23CCC4C(C)(C)C(=O)CC[C@]4(C)C2C[C@H]1C(O)C3=O` (some centres not stated), the TGI was over 75 µM.

`O=C1CC2C(=O)N(Cc3ccccc3)C1C=C2S(=O)(=O)c1ccccc1` (configuration not stated) displayed a TGI of over 100 µM.

Take `N.N.N.N.[Cl-].[Co+3].[N-]=[N+]=[N-].[N-]=[N+]=[N-]`: the GI50 is 50.5 µM and the TGI is over 100 µM.

For `O=c1[nH]c2cc(Cl)ccc2nc1/C(=N\O)C(O)c1ccc(Cl)cc1Cl` (configuration not stated), the TGI was over 100 µM.

Take `CC(C)CCCC(C)[C@H]1CCC2[C@H]3C(CC[C@@]21C)[C@@]1(C)CCC=C[C@]12C[C@@H]2[C@@H]3O` (some centres not stated): the TGI is over 100 µM.

As for `C=C1C(=O)O[C@H]2[C@H]1CC/C(COC(=O)c1ccc(Cl)nc1)=C\CC[C@@]1(C)O[C@@H]21`, the GI50 is 1.68 µM and the TGI was 3.6 µM.

`O=C(Nc1cc(Cl)ccc1Cl)C(=O)C(c1cnc2ccccc2n1)[N+](=O)[O-]` (configuration not stated) displayed a TGI of over 100 µM.

Consider `Cc1cc[c-]cc1.Fc1c[c-]c(-c2ccccn2)c(F)c1.[Pt+2].c1ccc(P(C[PH+](c2ccccc2)c2ccccc2)c2ccccc2)cc1`, for which the GI50 is 2.89 µM and the TGI was 9.84 µM.

Regarding `COc1cc2ncn(-c3cc(OCCc4ccccc4)c(C(N)=O)s3)c2cc1OC`, the GI50 was over 25 µM and the TGI was over 25 µM.

Turning to `Nc1nc(CCl)nc(Nc2ccccc2)n1`, the TGI turned out to be 66.1 µM.

Turning to `COc1ccc(OC)c2c(/C=C/c3ccc(N(C)C)cc3)ccnc12`, the TGI is over 10 µM.

In the case of `O=S1OC2(c3ccccc3-c3ccccc32)c2ccccc21` (configuration not stated), the TGI is over 100 µM.

For another assay, the system named is M19-MEL melanoma. Kind of assay: NCI anticancer screen, dose series, 48 h.
The molecule `COc1cc2ccc3c4cc(OC)c(OC(C)C)cc4cnc3c2cc1OC` displayed a TGI of over 100 µM.

For `CN1NC(=Nc2ccccc2)Sc2c1cnn(-c1ccccc1)c2=O`, the TGI is over 100 µM.

With `CC(=O)c1sc(-c2nc(C)c(C(=O)/C=C\c3ccc(/C=C\C(=O)c4sc(-c5nc(C)c(C(C)=O)s5)nc4C)cc3)s2)nc1C`, the TGI was over 100 µM.

In turn, `COC(=O)/C(C)=C/[N+](=O)[O-]` gave a TGI of 32.6 µM.

In turn, `Cc1ccc(C2(O)CC(c3ccc([N+](=O)[O-])o3)=NN2C(=O)COc2ccc(Cl)cc2)cc1` (configuration not stated) registered a TGI of 19.7 µM.

As to `COc1cccc(-n2c3nc(=O)n(C)c(=O)c-3nc3ccccc32)c1`, the TGI was determined as 6.1 µM.

As to `CC(C)(C=O)CC(C#N)/C(=N\NC(N)=O)C(=O)Nc1ccccc1C(N)=O` (configuration not stated), the TGI was over 100 µM.

`Cc1cc(C)c(C2[C@H]3C(=O)N(c4ccc(Cc5ccc(N6C(=O)[C@@H]7ON(c8ccccc8)C(c8c(C)cc(C)cc8C)[C@@H]7C6=O)cc5)cc4)C(=O)[C@H]3ON2c2ccccc2)c(C)c1` (some centres not stated) yielded a TGI of over 100 µM.

`COC(=O)OCC1OC(N2C(=O)NC(=O)C(Br)C2N=[N+]=[N-])CC1OC(=O)OC` (configuration not stated): the TGI was over 100 µM.

Take `CC12CCCCC1(C)C2Sc1ccccc1` (configuration not stated): the TGI was over 94.5 µM.

As to `CCCCOC(=O)NC(=O)c1cn(CCCOC(=O)NCCCCCCNC(=O)OCCCn2cc(C(=O)NC(=O)OCCCC)c(=O)[nH]c2=O)c(=O)[nH]c1=O`, the TGI was over 100 µM.

For `C[C@@]12CCCc3coc(c31)C(=O)c1cc3c(cc12)C(=O)C=CC3=O`, the GI50 is over 1 µM; the TGI was > 1 µM and 28 µM.

Turning to `C=CCNC(=O)N(CCC)CCCCC(NC(C)=O)C(=O)NCc1ccccc1` (configuration not stated), the TGI is over 100 µM.

Regarding `COC(=O)/C(C=O)=C/Sc1ccccc1`, the TGI is 55.7 µM.

Turning to `C=C1C[C@]23CCC4C(C)(C)C(=O)CC[C@]4(C)C2C[C@H]1C(O)C3=O` (some centres not stated), the TGI was over 75 µM.

`O=C1CC2C(=O)N(Cc3ccccc3)C1C=C2S(=O)(=O)c1ccccc1` (configuration not stated) returned a TGI of over 100 µM.

As to `O=c1[nH]c2cc(Cl)ccc2nc1/C(=N\O)C(O)c1ccc(Cl)cc1Cl` (configuration not stated), the TGI is over 100 µM.

`O=C(Nc1cc(Cl)ccc1Cl)C(=O)C(c1cnc2ccccc2n1)[N+](=O)[O-]` (configuration not stated) gave a TGI of over 100 µM.

In turn, `Nc1nc(CCl)nc(Nc2ccccc2)n1` showed a TGI of 98.8 µM.

As for `CN[C@@H](C)[C@H](NC)c1ccccc1`, the TGI was over 100 µM.

For the molecule `O=S1OC2(c3ccccc3-c3ccccc32)c2ccccc21` (configuration not stated), the TGI is over 100 µM.

In a further assay the test system is HCT-116 colon. The assay is described as follows: NCI anticancer screen, dose series, 48 h.
Consider `COc1cc2ccc3c4cc(OC)c(OC(C)C)cc4cnc3c2cc1OC`, for which the TGI is over 100 µM.

As for `CN1NC(=Nc2ccccc2)Sc2c1cnn(-c1ccccc1)c2=O`, the TGI was over 100 µM.
